Assay results reported in ChEMBL document CHEMBL3112549 (Bioorg Med Chem Lett, 2014).

Columns and labels:
[1] = molecular target: Vascular endothelial growth factor receptor 2 (Homo sapiens, UniProt P35968); test: Inhibition of VEGFR-2 tyrosine kinase (unknown origin) after 30 mins by HTRF method
[2] = molecular target: Mast/stem cell growth factor receptor Kit (Homo sapiens, UniProt P10721); test: Inhibition of c-KIT tyrosine kinase (unknown origin) after 30 mins by HTRF method
Chain of Mast/stem cell growth factor receptor Kit (P10721 whole entry): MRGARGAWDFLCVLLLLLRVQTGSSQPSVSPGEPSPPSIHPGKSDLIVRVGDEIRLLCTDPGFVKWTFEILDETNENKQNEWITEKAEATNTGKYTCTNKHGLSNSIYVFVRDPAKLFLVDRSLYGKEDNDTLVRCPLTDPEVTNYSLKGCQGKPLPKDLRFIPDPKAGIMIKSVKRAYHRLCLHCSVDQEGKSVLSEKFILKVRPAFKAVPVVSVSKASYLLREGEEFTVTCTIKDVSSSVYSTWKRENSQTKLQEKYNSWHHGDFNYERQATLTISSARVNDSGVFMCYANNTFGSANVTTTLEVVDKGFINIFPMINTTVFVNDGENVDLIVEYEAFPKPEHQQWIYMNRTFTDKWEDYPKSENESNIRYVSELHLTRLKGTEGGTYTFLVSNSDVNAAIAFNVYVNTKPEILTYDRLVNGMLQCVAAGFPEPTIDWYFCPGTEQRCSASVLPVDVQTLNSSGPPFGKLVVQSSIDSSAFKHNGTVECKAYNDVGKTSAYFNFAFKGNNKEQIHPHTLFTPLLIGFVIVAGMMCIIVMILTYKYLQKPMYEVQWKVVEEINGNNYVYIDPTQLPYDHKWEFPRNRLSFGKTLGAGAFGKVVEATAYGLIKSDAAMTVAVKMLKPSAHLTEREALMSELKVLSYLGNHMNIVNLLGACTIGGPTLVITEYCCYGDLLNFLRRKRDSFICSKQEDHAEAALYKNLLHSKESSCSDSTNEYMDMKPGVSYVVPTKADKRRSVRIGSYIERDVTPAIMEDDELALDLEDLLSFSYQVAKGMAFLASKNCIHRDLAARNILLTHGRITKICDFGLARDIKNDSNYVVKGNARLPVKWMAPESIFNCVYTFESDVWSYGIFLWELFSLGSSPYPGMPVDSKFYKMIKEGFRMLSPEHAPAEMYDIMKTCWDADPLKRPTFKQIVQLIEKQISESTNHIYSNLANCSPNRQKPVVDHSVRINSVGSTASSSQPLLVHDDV

Chain of Vascular endothelial growth factor receptor 2 (P35968 whole entry): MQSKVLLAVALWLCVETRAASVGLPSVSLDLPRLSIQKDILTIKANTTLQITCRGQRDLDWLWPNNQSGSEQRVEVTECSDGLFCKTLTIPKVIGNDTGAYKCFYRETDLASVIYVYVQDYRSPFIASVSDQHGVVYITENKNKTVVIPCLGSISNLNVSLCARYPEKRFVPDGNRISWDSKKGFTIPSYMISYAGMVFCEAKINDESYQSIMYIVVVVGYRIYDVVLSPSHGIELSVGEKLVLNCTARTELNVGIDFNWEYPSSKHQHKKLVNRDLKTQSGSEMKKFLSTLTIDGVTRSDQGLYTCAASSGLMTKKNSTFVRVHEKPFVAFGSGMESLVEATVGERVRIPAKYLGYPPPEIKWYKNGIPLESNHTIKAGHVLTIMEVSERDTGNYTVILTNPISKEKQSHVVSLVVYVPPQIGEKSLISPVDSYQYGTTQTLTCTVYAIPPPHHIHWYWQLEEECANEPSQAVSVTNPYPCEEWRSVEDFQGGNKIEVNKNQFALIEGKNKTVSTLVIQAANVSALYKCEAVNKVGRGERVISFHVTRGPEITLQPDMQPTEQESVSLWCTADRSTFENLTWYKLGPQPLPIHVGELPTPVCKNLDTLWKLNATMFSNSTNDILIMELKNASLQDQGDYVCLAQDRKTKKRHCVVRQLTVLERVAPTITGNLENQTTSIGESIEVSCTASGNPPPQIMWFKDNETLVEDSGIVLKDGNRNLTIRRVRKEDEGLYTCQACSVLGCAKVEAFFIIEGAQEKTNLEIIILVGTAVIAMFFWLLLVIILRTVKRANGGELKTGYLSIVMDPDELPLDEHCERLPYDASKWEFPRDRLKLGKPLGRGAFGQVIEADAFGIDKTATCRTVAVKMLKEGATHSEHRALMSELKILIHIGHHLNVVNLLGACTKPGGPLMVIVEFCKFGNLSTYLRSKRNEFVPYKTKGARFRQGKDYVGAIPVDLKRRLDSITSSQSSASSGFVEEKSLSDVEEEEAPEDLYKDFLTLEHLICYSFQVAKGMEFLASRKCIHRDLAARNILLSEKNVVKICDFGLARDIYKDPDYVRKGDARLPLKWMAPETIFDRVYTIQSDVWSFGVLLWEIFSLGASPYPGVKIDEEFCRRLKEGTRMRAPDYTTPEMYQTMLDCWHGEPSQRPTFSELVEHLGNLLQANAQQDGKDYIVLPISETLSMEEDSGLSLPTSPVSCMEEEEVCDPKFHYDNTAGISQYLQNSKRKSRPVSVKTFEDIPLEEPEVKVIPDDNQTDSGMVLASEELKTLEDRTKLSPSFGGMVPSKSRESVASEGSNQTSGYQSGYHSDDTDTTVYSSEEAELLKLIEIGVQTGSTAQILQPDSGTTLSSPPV

| Compound | IC50 [1] [µM] | IC50 [2] [µM] |
| --- | --- | --- |
| Cc1c2ccc(N(C)c3ccnc(Nc4cccc(F)c4)n3)cc2nn1C | 0.078 | 0.102 |
| Cc1c2ccc(N(C)c3ccnc(Nc4cccc(Br)c4)n3)cc2nn1C | 0.064 | 0.098 |
| Cc1c2ccc(N(C)c3ccnc(Nc4cccc(Cl)c4)n3)cc2nn1C | 0.025 | 0.08 |
| COc1cccc(Nc2nccc(N(C)c3ccc4c(C)n(C)nc4c3)n2)c1 | 0.038 | 0.072 |
| Cc1cccc(Nc2nccc(N(C)c3ccc4c(C)n(C)nc4c3)n2)c1 | 0.042 | 0.087 |
| Cc1cc(C)cc(Nc2nccc(N(C)c3ccc4c(C)n(C)nc4c3)n2)c1 | 0.021 | 0.04 |
| CSc1ccc(Nc2nccc(N(C)c3ccc4c(C)n(C)nc4c3)n2)cc1 | 0.051 | 0.071 |
| Cc1c2ccc(N(C)c3ccnc(Nc4ccc(OC(F)(F)F)cc4)n3)cc2nn1C | 0.072 | 0.089 |
| CN(c1ccc2cn(C)nc2c1)c1ccnc(Nc2cccc(F)c2)n1 | 0.093 | 0.096 |
| CN(c1ccc2cn(C)nc2c1)c1ccnc(Nc2cccc(Cl)c2)n1 | 0.072 | 0.072 |
| COc1cccc(Nc2nccc(N(C)c3ccc4cn(C)nc4c3)n2)c1 | 0.108 | 0.077 |
| CN(c1ccc2cn(C)nc2c1)c1ccnc(Nc2ccc(OC(F)(F)F)cc2)n1 | 0.012 | 0.083 |
| Cc1cc(C)cc(Nc2nccc(N(C)c3ccc4cn(C)nc4c3)n2)c1 | 0.028 | 0.061 |
